Laboratory results taken from ChEMBL document CHEMBL1201862, “PubChem BioAssay data set” (2004).
Calls of active or inactive are those of the source.

Assays:
Cytochrome P450 2C19 = Cytochrome P450 2C19 (Homo sapiens, UniProt P33261); test: Cytochrome panel assay with activity outcomes. Panel member name: p450-cyp2c19 Compounds with AC50 equal or less than 10 uM are considered active; type: functional
Cytochrome P450 2C9 = Cytochrome P450 2C9 (Homo sapiens, UniProt P11712)
[1] = inhibitors of intracellular T. cruzi replication, confirmation, NIH3T3 host cells, beta-gal luminescence (AID 2044); type: functional, cell-based;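 note: intracellular parasites grown in NIH/3T3 mouse fibroblasts as host cells; luminescent beta-galactosidase reporter signal from transgenic T. cruzi replicating inside host cells; inhibitors lower the luminescence signal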
[2] = cytotoxicity toward NIH3T3 fibroblasts, dose response, counter-screen, cell-based, ATP luminescence, mouse fibroblasts (AID 2010); type: functional;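 note: cells exposed to compound for about 90 hours before reading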
[3] = molecular target: T1, Heat shock factor protein 1 (Mus musculus, UniProt P38532); test: inhibition of MG132-induced HSE-luciferase signal, confirmation, cell-based, NIH3T3, luminescence, dose retest (AID 2382); type: functional;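 note: NIH3T3 fibroblasts with HSF1-driven luciferase reporter stressed by proteasome inhibitor MG132; luminescence from HSF1-driven luciferase expression after 8 hours of MG132 stress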
T1 sequence (P38532 whole entry): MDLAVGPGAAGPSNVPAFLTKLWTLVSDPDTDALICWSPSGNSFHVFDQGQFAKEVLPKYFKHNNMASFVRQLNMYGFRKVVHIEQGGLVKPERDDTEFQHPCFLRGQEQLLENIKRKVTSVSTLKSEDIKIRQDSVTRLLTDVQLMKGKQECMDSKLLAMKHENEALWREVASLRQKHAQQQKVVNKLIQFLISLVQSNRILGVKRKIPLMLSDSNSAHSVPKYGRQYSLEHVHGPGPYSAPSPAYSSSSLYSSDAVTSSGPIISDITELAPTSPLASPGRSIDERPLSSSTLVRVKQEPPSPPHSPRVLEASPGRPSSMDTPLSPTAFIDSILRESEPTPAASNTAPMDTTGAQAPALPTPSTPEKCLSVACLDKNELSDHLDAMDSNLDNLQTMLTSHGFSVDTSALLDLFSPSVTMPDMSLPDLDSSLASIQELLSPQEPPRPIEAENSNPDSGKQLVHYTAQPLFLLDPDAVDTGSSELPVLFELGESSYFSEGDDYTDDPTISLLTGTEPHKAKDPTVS

Cytochrome P450 3A4 = Cytochrome P450 3A4 (Homo sapiens, UniProt P08684);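 note: CYP3A4 tested as one member of a cytochrome P450 panel screen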
Chain of Cytochrome P450 3A4 (P08684 whole entry): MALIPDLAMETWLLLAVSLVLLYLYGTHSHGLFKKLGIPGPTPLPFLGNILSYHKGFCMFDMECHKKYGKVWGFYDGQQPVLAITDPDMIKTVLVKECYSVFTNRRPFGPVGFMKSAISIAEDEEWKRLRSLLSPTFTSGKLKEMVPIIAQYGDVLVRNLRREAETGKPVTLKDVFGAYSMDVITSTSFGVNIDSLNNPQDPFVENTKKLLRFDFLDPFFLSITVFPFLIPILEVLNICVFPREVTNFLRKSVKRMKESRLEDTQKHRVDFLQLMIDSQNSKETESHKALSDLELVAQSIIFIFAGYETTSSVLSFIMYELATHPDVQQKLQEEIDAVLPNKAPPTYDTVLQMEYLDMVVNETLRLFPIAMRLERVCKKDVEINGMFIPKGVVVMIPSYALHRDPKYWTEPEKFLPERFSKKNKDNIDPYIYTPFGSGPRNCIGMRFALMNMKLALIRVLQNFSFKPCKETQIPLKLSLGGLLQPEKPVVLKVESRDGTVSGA

Cytochrome P450 2D6 = Cytochrome P450 2D6 (Homo sapiens, UniProt P10635);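 note: CYP2D6 member of a cytochrome P450 panel assay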
Chain of Cytochrome P450 2D6 (P10635 whole entry): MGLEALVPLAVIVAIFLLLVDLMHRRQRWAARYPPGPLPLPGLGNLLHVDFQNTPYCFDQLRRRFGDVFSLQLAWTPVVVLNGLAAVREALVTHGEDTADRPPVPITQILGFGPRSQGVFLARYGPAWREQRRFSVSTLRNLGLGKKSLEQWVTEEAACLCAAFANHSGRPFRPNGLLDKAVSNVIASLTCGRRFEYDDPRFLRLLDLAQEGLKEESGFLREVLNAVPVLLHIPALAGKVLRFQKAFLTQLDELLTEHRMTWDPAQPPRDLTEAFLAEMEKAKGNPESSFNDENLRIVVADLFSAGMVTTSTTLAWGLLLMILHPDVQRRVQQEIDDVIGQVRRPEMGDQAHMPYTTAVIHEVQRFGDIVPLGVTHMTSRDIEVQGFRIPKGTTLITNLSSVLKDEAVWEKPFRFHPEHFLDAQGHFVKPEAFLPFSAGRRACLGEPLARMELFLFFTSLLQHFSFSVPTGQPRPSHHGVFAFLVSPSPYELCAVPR

Chain of Cytochrome P450 2C9 (P11712 whole entry): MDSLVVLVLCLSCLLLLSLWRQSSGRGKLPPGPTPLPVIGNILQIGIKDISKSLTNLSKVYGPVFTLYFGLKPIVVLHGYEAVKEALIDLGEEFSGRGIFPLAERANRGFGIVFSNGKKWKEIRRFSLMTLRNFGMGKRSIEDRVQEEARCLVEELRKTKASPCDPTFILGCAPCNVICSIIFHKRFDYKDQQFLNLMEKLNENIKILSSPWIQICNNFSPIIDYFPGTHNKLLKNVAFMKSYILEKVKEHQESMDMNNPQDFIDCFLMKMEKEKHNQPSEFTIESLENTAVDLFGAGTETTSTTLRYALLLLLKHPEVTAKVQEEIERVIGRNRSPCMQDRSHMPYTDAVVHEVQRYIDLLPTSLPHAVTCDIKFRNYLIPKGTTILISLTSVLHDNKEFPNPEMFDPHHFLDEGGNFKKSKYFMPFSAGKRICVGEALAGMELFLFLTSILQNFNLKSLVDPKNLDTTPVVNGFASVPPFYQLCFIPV
Chain of Cytochrome P450 2C19 (P33261 whole entry): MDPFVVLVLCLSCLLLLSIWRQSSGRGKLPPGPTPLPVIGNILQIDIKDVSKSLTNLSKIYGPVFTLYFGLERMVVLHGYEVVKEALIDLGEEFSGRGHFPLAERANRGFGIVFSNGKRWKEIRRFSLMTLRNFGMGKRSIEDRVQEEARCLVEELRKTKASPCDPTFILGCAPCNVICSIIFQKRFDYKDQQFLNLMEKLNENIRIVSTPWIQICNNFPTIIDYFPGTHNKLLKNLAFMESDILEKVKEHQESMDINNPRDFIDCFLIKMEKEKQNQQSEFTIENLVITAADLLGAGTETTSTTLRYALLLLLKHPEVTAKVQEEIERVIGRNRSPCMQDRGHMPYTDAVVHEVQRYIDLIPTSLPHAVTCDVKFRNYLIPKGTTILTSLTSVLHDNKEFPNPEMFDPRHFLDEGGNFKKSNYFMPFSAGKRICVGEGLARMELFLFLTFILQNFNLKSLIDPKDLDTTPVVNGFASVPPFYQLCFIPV

Cn1c(=O)c(-c2ccccc2)nc2cnc(N3CCNCC3)nc21
AC50 (Cytochrome P450 2C19; read-out: AC50): 39.8 µM (inconclusive)
AC50 (Cytochrome P450 2C9): 15.8 µM (inconclusive)

N#Cc1ccccc1NC(=O)c1ccccc1OCC(=O)Nc1ccc2c(c1)oc1ccccc12
EC50 [1]: 2850 nM (active)
EC50 [2]: 47.3 µM (active)

COc1ccc(/C=C/C(=O)Oc2ccc(/C=N/NC(=O)COc3c(C)cccc3C)cc2)cc1
EC50 [3]: > 195 µM (not active)

CN1CCN(c2ccc(S(=O)(=O)N3CCCCC3)cc2NC(=O)CSCc2ccccc2)CC1
EC50 [1]: 315 nM (active)
EC50 [2]: > 60 µM (not active)

N#CC1=C(N)N(c2ccc(Oc3ccccc3)cc2)C(=O)C1
EC50 [3]: > 195 µM (not active)

CCN(CC)C(=O)C1CCCN(c2ccc([N+](=O)[O-])cc2/C=N/NC(=O)c2ccc([N+](=O)[O-])cc2)C1 (centres undefined)
EC50 [3]: > 195 µM (not active)
AC50 (Cytochrome P450 3A4): 2.82 µM (inconclusive)

CCN(CC)C(=O)C1CCCN(Cc2ccc(N(C)C)cc2)C1 (centres undefined)
EC50 [1]: 296 nM (active)
EC50 [2]: > 60 µM (not active)

O=C(c1ccco1)N1CCN(S(=O)(=O)/C=C/c2ccccc2)CC1
EC50 [3]: > 195 µM (not active)

O=C(c1cnccn1)N1CCC2(CCCN(c3ccccc3)C2)CC1
AC50 (Cytochrome P450 2C9): 39.8 µM (inconclusive)

COc1ccc2[nH]cc(CCNc3ccnc(-c4cccc(NS(C)(=O)=O)c4)n3)c2c1
AC50 (Cytochrome P450 3A4): 2.51 µM (inconclusive)
AC50 (Cytochrome P450 2C9): 0.126 µM (inconclusive)

CCN1C(=O)C(CC(=O)Nc2ccc(OC)cc2)N(Cc2cccs2)C1=S (centres undefined)
AC50 (Cytochrome P450 2D6): 14.1 µM (inconclusive)

CCOP(=O)(OCC)C(NC(=O)C(Cl)Cl)C(Cl)(Cl)Cl (centres undefined)
AC50 (Cytochrome P450 3A4): 31.6 µM (inconclusive)
AC50 (Cytochrome P450 2C9): 39.8 µM (inconclusive)

O=C(CN(CC1CCCO1)C(=O)CNS(=O)(=O)c1ccc(Cl)cc1)NCCc1ccccc1 (centres undefined)
AC50 (Cytochrome P450 2D6): 39.8 µM (inconclusive)
AC50 (Cytochrome P450 2C9): 22.4 µM (inconclusive)

CCNc1ncc2nc(CCc3ccccc3)c(=O)n(C3CC3)c2n1
AC50 (Cytochrome P450 2C9): 3.98 µM (inconclusive)

O=S(=O)(NCCCCCCc1ccccc1)c1cccc2c(Cl)cccc12
AC50 (Cytochrome P450 2C9): 5.01 µM (inconclusive)

Nc1ccccc1S[C@@H](C[N+](=O)[O-])c1ccc2c(c1)OCO2
AC50 (Cytochrome P450 3A4): 2.51 µM (inconclusive)
AC50 (Cytochrome P450 2C9): 6.31 µM (inconclusive)

Cc1cc([N+](=O)[O-])nn1CC(=O)NCc1nc2ccccc2[nH]1
EC50 [3]: > 195 µM (not active)

Sc1c2ncnc-2ncn1CCSc1[nH]cnc2ncnc1-2
AC50 (Cytochrome P450 2C19): inconclusive

CCc1ccc(NC(=O)CSc2ccc(-c3cccnc3)nn2)cc1
EC50 [3]: > 195 µM (not active)

CC(=O)O[C@H]1C2=CO[C@H](C)[C@H]3C4C5=C([C@@H](O[C@H]4C)[C@@]23C(=O)[C@H]2O[C@@H]21)[C@H](O)[C@H]1O[C@@H]1C5=O
AC50 (Cytochrome P450 3A4): 3.98 µM (inconclusive)

Cc1oc(-c2ccccc2F)nc1C[S+]([O-])CC(=O)N1CCC2(CC1)OCCO2 (centres undefined)
AC50 (Cytochrome P450 2C9): 20 µM (inconclusive)

COCCn1c(=O)c(-c2ccc(OC)cc2)nc2cnc(OCc3ccccc3)nc21
AC50 (Cytochrome P450 3A4): 25.1 µM (inconclusive)

N#CC(C#N)=C(N)/C(C#N)=C/c1ccc(O)cc1
AC50 (Cytochrome P450 3A4): 39.8 µM (inconclusive)

Cc1nc(N=C(N)NS(=O)(=O)c2ccc([N+](=O)[O-])cc2)nc2ccccc12
EC50 [1]: 452 nM (active)
EC50 [2]: 24.6 µM (active)

CCN(CC)C(=O)CSc1nnc(CNc2ccc(F)cc2)o1
AC50 (Cytochrome P450 2C19; read-out: AC50): 22.4 µM (inconclusive)
AC50 (Cytochrome P450 3A4): 25.1 µM (inconclusive)

O=C(CCN1CCN(C/C=C/c2ccccc2)CC1)Nc1ccccc1
EC50 [1]: 1950 nM (active)
EC50 [2]: > 60 µM (not active)

COc1cccc(C(=O)Nc2nc3c(s2)CN(C)CC3)c1
AC50 (Cytochrome P450 2D6): 25.1 µM (inconclusive)

COc1ccc2nc3c(O)n(CCCN4CCOCC4)cnc-3c2c1
EC50 [3]: > 195 µM (not active)

CC(=O)Nc1ccc(OS(=O)(=O)c2ccccc2C)cc1
EC50 [3]: > 195 µM (not active)

CCOc1ccccc1CN1CCN(Cc2nc3ccccc3s2)CC1CCO (centres undefined)
EC50 [1]: 1160 nM (active)
EC50 [2]: > 60 µM (not active)

Cc1ccc(CNC(=O)C2CCCN2C(=O)NCc2ccccc2)cc1 (centres undefined)
AC50 (Cytochrome P450 2C9): 11.2 µM (inconclusive)

CCCCCCN1CC(=O)N2[C@@H](Cc3c([nH]c4ccccc34)C2(C)C)C1=O
EC50 [3]: > 195 µM (not active)

CCCc1cc2c(n1CCO)C(C)C1CN(C(=O)c3ccccc3)C(C)(C(=O)OC)C21 (centres undefined)
AC50 (Cytochrome P450 2C19; read-out: AC50): 3.16 µM (inconclusive)

CC(=O)SCC[N+](C)(C)C [ACETYLTHIOCHOLINE]
AC50 (Cytochrome P450 2C19): inconclusive

COc1ccccc1CN1CCN(Cc2nc(Cc3ccccc3)no2)CC1
EC50 [1]: 754 nM (active)
EC50 [2]: > 30 µM (not active)
